# Test results taken from US20260274832A1, “COMPOUNDS AND THEIR USE IN TREATING CANCER” (ASTRAZENECA AB, priority 2023, published 2026).
# Assays:
# [1] = biological target: T1, AR (AR-full length) in LNCaP cells (Homo sapiens, UniProt P10275, T878A); assay: LNCaP Androgen Receptor Imaging Assay (immunofluorescence of endogenous nuclear AR); assay type: cell-based; conditions: 24 h incubation; for DC50: concentration giving 50% of maximum degradation of AR per curve fit, single experiment or average of two or more; for Dmax: LNCaP, maximum degradation observed, normalized as % of positive control (prior art AR PROTAC at 3 μM)
# T1 construct: the prostate cancer cell line LNCaP (expressing AR-full length); endogenous in cells; host or cells: LNCaP
# Outline: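 LNCaP cells (12,000/well) received a 12-point compound dose series (0.3% DMSO) for 24 h at 37° C., then were PFA-fixed and stained for AR (AR441) and nuclei (DRAQ5). Nuclear AR was quantified by imaging, normalized to a 3 μM AR PROTAC control; DC50 and Dmax came from Hill/bell curve fits.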
# [2] = biological target: T2, AR (L702H) in LNCaP cells (Homo sapiens, UniProt P10275, L702H/T878A); assay: LNCaP Androgen Receptor L702H Imaging Assay (LNCaP cells engineered by CRISPR/Cas9); assay type: cell-based; conditions: LNCaP cells with AR L702H mutation, 24 h incubation; for DC50: concentration giving 50% of maximum degradation of AR (L702H) per curve fit; for Dmax: LNCaP, maximum degradation observed, normalized as % of positive control
# T2 construct: engineered to introduce the mutation L702H into the AR gene using CRISPR/Cas9; endogenous in cells; host or cells: LNCaP cells edited by CRISPR/Cas9 at the AR gene
# Outline: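 CRISPR-engineered LNCaP cells carrying AR L702H were treated 24 h at 37 °C with a 12-point compound dose response (0.3% DMSO), then fixed and immunostained for AR with DRAQ5 nuclear counterstain. Nuclear AR was quantified by imaging, normalized to positive control; DC50 and Dmax came from Hill or bell-shaped fits.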
# T1 sequence (P10275 whole entry T878A): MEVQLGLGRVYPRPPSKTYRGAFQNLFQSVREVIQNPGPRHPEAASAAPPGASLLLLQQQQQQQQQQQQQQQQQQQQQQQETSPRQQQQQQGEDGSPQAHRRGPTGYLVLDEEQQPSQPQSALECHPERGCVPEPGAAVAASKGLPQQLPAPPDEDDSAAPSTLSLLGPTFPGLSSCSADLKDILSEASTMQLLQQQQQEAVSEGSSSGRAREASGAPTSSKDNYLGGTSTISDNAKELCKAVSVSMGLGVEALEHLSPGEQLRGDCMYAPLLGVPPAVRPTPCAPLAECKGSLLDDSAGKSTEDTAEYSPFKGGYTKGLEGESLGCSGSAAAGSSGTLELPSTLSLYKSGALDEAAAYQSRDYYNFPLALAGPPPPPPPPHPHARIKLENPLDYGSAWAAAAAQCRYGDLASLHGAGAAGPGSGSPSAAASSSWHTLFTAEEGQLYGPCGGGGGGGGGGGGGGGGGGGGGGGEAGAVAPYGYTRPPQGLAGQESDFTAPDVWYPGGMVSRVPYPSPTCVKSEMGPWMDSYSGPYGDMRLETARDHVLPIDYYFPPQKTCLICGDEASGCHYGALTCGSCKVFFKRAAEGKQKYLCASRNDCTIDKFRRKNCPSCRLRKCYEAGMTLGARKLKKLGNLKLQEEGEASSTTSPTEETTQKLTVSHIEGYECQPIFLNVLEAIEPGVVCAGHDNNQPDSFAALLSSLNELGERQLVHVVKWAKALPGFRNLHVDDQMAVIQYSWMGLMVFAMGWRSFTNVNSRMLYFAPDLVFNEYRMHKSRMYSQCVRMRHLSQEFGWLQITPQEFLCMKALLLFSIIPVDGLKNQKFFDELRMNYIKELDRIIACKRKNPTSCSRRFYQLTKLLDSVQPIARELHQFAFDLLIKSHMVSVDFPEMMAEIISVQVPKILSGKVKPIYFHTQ
# T1 sequence (Q96SW2 whole entry partner): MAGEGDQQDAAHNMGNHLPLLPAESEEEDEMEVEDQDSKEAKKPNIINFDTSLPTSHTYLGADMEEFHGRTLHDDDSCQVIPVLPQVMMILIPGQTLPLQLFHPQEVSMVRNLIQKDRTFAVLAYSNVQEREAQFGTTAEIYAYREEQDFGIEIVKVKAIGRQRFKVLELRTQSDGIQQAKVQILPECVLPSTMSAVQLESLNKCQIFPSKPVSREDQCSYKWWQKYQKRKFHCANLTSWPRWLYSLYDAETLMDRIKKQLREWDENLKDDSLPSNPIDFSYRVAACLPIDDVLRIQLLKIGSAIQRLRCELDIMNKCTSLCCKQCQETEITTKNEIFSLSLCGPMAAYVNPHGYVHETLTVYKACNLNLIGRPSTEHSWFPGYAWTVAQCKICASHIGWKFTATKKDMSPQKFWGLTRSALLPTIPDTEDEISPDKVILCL
# T2 sequence (P10275 whole entry L702H/T878A): as the sequence (P10275 whole entry T878A) above, with L702H counted along it
# T2 sequence (Q96SW2 whole entry partner): as the sequence (Q96SW2 whole entry partner) above
structure (smiles),measurement,setting,value
"Cn1c(C2CCN(CC3CCN(c4ccc(C5CCN(c6ccc(Cl)c7c(C#N)c[nH]c67)CC5)cc4)CC3)CC2)cc2ccc(N3CCC(=O)NC3=O)cc21 [Example 84, 4-Chloro-7-(4-{4-[4-({4-[6-(2,4-dioxo-1,3-diazinan-1-yl)-1-methyl-1H-indol-2-yl]piperidin-1-yl}methyl)piperidin-1-yl]phenyl}piperidin-1-yl)-1H-indole-3-carbonitrile]",DC50,[1],22 nM
same,Dmax,[1],99%
same,DC50,[2],12 nM
same,Dmax,[2],103%
"N#Cc1c[nH]c2c(N3CCC(c4ccc(C(=O)N5CCC(CN6CCN(c7ccc8c(c7)CN(C7CCC(=O)NC7=O)C8=O)CC6)CC5)cc4)CC3)ccc(Cl)c12 (stereo not shown) [Example 85, 4-Chloro-7-(4-{4-[4-({4-[2-(2,6-dioxopiperidin-3-yl)-1-oxo-2,3-dihydro-1H-isoindol-5-yl]piperazin-1-yl}methyl)piperidine-1-carbonyl]phenyl}piperidin-1-yl)-1H-indole-3-carbonitrile]",DC50,[1],4 nM
same,Dmax,[1],98%
same,DC50,[2],17 nM
same,Dmax,[2],83%
"COc1nc(N2CCN(C3CCN(c4ccc(C5CCN(c6ccc(Cl)c7c(C#N)c[nH]c67)CC5)cc4)CC3)CC2)cc2c1C(=O)N(C1CCC(=O)NC1=O)C2 (stereo not shown) [Example 86, 4-Chloro-7-{4-[4-(4-{4-[2-(2,6-dioxopiperidin-3-yl)-4-methoxy-3-oxo-2,3-dihydro-1H-pyrrolo[3,4-c]pyridin-6-yl]piperazin-1-yl}piperidin-1-yl)phenyl]piperidin-1-yl}-1H-indole-3-carbonitrile]",DC50,[1],15 nM
same,Dmax,[1],94%
same,DC50,[2],14 nM
same,Dmax,[2],99%
"COc1nc(N2CCN(CCC3CCN(c4ccc(C5CCN(c6ccc(Cl)c7c(C#N)c[nH]c67)CC5)cc4)CC3)CC2)cc2c1C(=O)N(C1CCC(=O)NC1=O)C2 (stereo not shown) [Example 87, 4-Chloro-7-(4-{4-[4-(2-{4-[2-(2,6-dioxopiperidin-3-yl)-4-methoxy-3-oxo-2,3-dihydro-1H-pyrrolo[3,4-c]pyridin-6-yl]piperazin-1-yl}ethyl)piperidin-1-yl]phenyl}piperidin-1-yl)-1H-indole-3-carbonitrile]",DC50,[1],5 nM
same,Dmax,[1],95%
same,DC50,[2],8 nM
same,Dmax,[2],94%
"COc1nc(N2CCN(CCCC3CCN(c4ccc(C5CCN(c6ccc(Cl)c7c(C#N)c[nH]c67)CC5)cc4)CC3)CC2)cc2c1C(=O)N(C1CCC(=O)NC1=O)C2 (stereo not shown) [Example 88, 4-Chloro-7-(4-{4-[4-(3-{4-[2-(2,6-dioxopiperidin-3-yl)-4-methoxy-3-oxo-2,3-dihydro-1H-pyrrolo[3,4-c]pyridin-6-yl]piperazin-1-yl}propyl)piperidin-1-yl]phenyl}piperidin-1-yl)-1H-indole-3-carbonitrile]",DC50,[1],13 nM
same,Dmax,[1],96%
same,DC50,[2],21 nM
same,Dmax,[2],99%
"N#Cc1c[nH]c2c(N3CCC(c4ccc(N5CCC(CN6CCC(n7ccc8cc(N9CCC(=O)NC9=O)ccc87)CC6)CC5)cc4)CC3)ccc(F)c12 [Example 89, 7-(4-{4-[4-({4-[5-(2,4-Dioxo-1,3-diazinan-1-yl)-1H-indol-1-yl]piperidin-1-yl}methyl)piperidin-1-yl]phenyl}piperidin-1-yl)-4-fluoro-1H-indole-3-carbonitrile]",DC50,[1],421 nM
same,Dmax,[1],70%
same,DC50,[2],56 nM
same,Dmax,[2],97%
"N#Cc1c[nH]c2c(N3CCC(c4ccc(N5CCC(CN6CCC(n7ccc8cc(N9CCC(=O)NC9=O)ccc87)CC6)CC5)cc4)CC3)ccc(Cl)c12 [Example 90, 4-Chloro-7-(4-{4-[4-({4-[5-(2,4-dioxo-1,3-diazinan-1-yl)-1H-indol-1-yl]piperidin-1-yl}methyl)piperidin-1-yl]phenyl}piperidin-1-yl)-1H-indole-3-carbonitrile]",DC50,[1],281 nM
same,Dmax,[1],87%
same,DC50,[2],164 nM
same,Dmax,[2],101%
"Cc1ccc(N2CCN(c3ccc(OCCCCN4CCN(c5ccc6c(c5)CN(C5CCC(=O)NC5=O)C6=O)CC4)cc3)CC2)c2[nH]cc(C#N)c12 (stereo not shown) [Example 95, 7-{4-[4-(4-{4-[2-(2,6-Dioxopiperidin-3-yl)-1-oxo-2,3-dihydro-1H-isoindol-5-yl]piperazin-1-yl}butoxy)phenyl]piperazin-1-yl}-4-methyl-1H-indole-3-carbonitrile]",DC50,[1],10 nM
same,Dmax,[1],54%
same,DC50,[2],> 3000 nM
"N#Cc1c[nH]c2c(N3CCC(c4ccc(C(=O)N5CCC(CN6CCN(c7cc8c(cc7F)C(=O)N(C7CCC(=O)NC7=O)C8=O)CC6)CC5)cc4)CC3)ccc(Cl)c12 (stereo not shown) [Example 100, 4-Chloro-7-(4-{4-[4-({4-[2-(2,6-dioxopiperidin-3-yl)-6-fluoro-1,3-dioxo-2,3-dihydro-1H-isoindol-5-yl]piperazin-1-yl}methyl)piperidine-1-carbonyl]phenyl}piperidin-1-yl)-1H-indole-3-carbonitrile]",DC50,[1],29 nM
same,Dmax,[1],101%
same,DC50,[2],449 nM
same,Dmax,[2],89%
"N#Cc1c[nH]c2c(N3CCC(c4ccc(OC5CCN(CC6CCN(c7ccc8c(c7)CN(C7CCC(=O)NC7=O)C8=O)CC6)CC5)cc4)CC3)ccc(F)c12 (stereo not shown) [Example 101, 7-[4-(4-{[1-({1-[2-(2,6-Dioxopiperidin-3-yl)-1-oxo-2,3-dihydro-1H-isoindol-5-yl]piperidin-4-yl}methyl)piperidin-4-yl]oxy}phenyl)piperidin-1-yl]-4-fluoro-1H-indole-3-carbonitrile]",DC50,[1],6 nM
same,Dmax,[1],97%
same,DC50,[2],15 nM
same,Dmax,[2],87%
"Cc1cc(N2CCC(=O)NC2=O)cc2ccn(C3CCN(CC4CCN(c5ccc(C6CCN(c7ccc(Cl)c8c(C#N)c[nH]c78)CC6)cc5)CC4)CC3)c12 [Example 102, 4-Chloro-7-(4-{4-[4-({4-[5-(2,4-dioxo-1,3-diazinan-1-yl)-7-methyl-1H-indol-1-yl]piperidin-1-yl}methyl)piperidin-1-yl]phenyl}piperidin-1-yl)-1H-indole-3-carbonitrile]",DC50,[1],52 nM
same,Dmax,[1],86%
same,DC50,[2],44 nM
same,Dmax,[2],106%
"Cn1c(C2CCN(CC3CCN(c4ccc(C5CCN(c6ccc(Cl)c7c(C#N)c[nH]c67)CC5)cc4)CC3)CC2)cc2ncc(N3CCC(=O)NC3=O)cc21 [Example 103, 4-Chloro-7-(4-{4-[4-({4-[6-(2,4-dioxo-1,3-diazinan-1-yl)-1-methyl-1H-pyrrolo[3,2-b]pyridin-2-yl]piperidin-1-yl}methyl)piperidin-1-yl]phenyl}piperidin-1-yl)-1H-indole-3-carbonitrile]",DC50,[1],8 nM
same,Dmax,[1],85%
same,DC50,[2],7 nM
same,Dmax,[2],107%
"N#Cc1c[nH]c2c(N3CCC[C@@H](c4ccc(N5CCC(CN6CCN(c7ccc(C(=O)NC8CCC(=O)NC8=O)c(F)c7)CC6)CC5)cc4)C3)ccc(Cl)c12 (stereo partly drawn) [Example 104, 4-{4-[(1-{4-[(3S)-1-(4-chloro-3-cyano-1H-indol-7-yl)piperidin-3-yl]phenyl}piperidin-4-yl)methyl]piperazin-1-yl}-N-(2,6-dioxopiperidin-3-yl)-2-fluorobenzamide]",DC50,[1],13 nM
same,Dmax,[1],98%
same,DC50,[2],46 nM
same,Dmax,[2],97%
"N#Cc1c[nH]c2c(N3CCC(c4ccc(N5CCC(CN6CCN(c7ccc(C(=O)NC8CCC(=O)NC8=O)c(F)c7)CC6)CC5)cc4)CC3)ccc(F)c12 (stereo not shown) [Example 105, 4-{4-[(1-{4-[1-(3-Cyano-4-fluoro-1H-indol-7-yl)piperidin-4-yl]phenyl}piperidin-4-yl)methyl]piperazin-1-yl}-N-(2,6-dioxopiperidin-3-yl)-2-fluorobenzamide]",DC50,[1],61 nM
same,Dmax,[1],89%
same,DC50,[2],49 nM
same,Dmax,[2],95%
"N#Cc1c[nH]c2c(N3CCC(c4ccc(N5CCC(CN6CCN(c7ccc(C(=O)NC8CCC(=O)NC8=O)c(F)c7)CC6)CC5)cc4)CC3)ccc(Cl)c12 (stereo not shown) [Example 106, 4-{4-[(1-{4-[1-(4-Chloro-3-cyano-1H-indol-7-yl)piperidin-4-yl]phenyl}piperidin-4-yl)methyl]piperazin-1-yl}-N-(2,6-dioxopiperidin-3-yl)-2-fluorobenzamide]",DC50,[1],22 nM
same,Dmax,[1],97%
same,DC50,[2],50 nM
same,Dmax,[2],93%
"N#Cc1c[nH]c2c(N3CCC(c4ccc(CN5CCN(CC6CCN(c7ccc8c(c7)CN(C7CCC(=O)NC7=O)C8=O)CC6)CC5)cc4)CC3)ccc(F)c12 (stereo not shown) [Example 107, 7-[4-(4-{[4-({1-[2-(2,6-Dioxopiperidin-3-yl)-1-oxo-2,3-dihydro-1H-isoindol-5-yl]piperidin-4-yl}methyl)piperazin-1-yl]methyl}phenyl)piperidin-1-yl]-4-fluoro-1H-indole-3-carbonitrile]",DC50,[1],6 nM
same,Dmax,[1],93%
same,DC50,[2],300 nM
same,Dmax,[2],107%
"N#Cc1c[nH]c2c(N3CCC(c4ccc(N5CCC(CN6CCC(n7ccc8c(N9CCC(=O)NC9=O)cccc87)CC6)CC5)nc4)CC3)ccc(Cl)c12 [Example 108, 4-Chloro-7-(4-{6-[4-({4-[4-(2,4-dioxo-1,3-diazinan-1-yl)-1H-indol-1-yl]piperidin-1-yl}methyl)piperidin-1-yl]pyridin-3-yl}piperidin-1-yl)-1H-indole-3-carbonitrile]",DC50,[1],7 nM
same,Dmax,[1],104%
same,DC50,[2],34 nM
same,Dmax,[2],102%
